The structures appear in SMILES notation.

Data set [1] concerns stress-induced gastric ulcer. Nature of the data set: Protective effect on gastric ulcer induced by restraint plus water-immersion stress in rats. To be noted: for Ulcer index: mean ± S.E. The format is in vivo, Male Sprague-Dawley rats. The protocol:
1.1 Protective efrfect on gastric ulcer induced by restraint plus water-immersion stress in rats
Male Sprague-Dawley rats weighing 250-300 g wer eused in groups of 5-24. The animals were given the compounds by the oral route after fastin overnight. Immediately, under light ether anesthesia they were placed in a restraint box and immersed in water at 20° C. for 6 to 7 hours. Then the animals were sacrificed, and their stomachs were isolated, inflated with 4 ml of 1 % formalin for 10 minutes, opened along the greater cruvature, and examined for the rpesence of agstric erosions. The longest axis of each erosion induced on the glandular section of the stomach was measured, and the sum of the lengths was defined as an ulcer index.

A short description of data set [2]: in vivo. The note with it: mouse, mice.
Data set [3] has as its system peptic ulcer disease. To be noted: Vorobyev and Samsonov, Ter. Ark. 57, 52-55, 1985; cited from earlier work.
Data set [4] deals with ethanol-induced gastric ulcer. Nature of the data set: Protective effect on ethanol-induced gastric ulcer in rats. To be noted: for Ulcer index: mean ± S.E. The format is in vivo, Male Sprague-Dawley rats. The protocol:
1.2 Protective effect on ethanol-induced gastric ulcer in rats
Male Sprague-Dawley rats weighing 250-300 g were used in groups of 5-21. After fasting overnight, the animals were given orally the compounds. Thirty minutes later they received absolute ethanol (1 ml/body) orally and were sacrificed after 60 minutes. The stomach was removed and examined for erosions. The ulcer index was obtained in the same way as under 1.1.

Another data set relates to gastric hemorrhage. Nature of the data set: Inhibitory effect on gastric hemorrhage in rats (pylorus ligation, 2-deoxy-D-glucose plus indomethacin). The format is in vivo, Male Sprague-Dawley rats. To be noted: for Amount of hemoglobin: mean ± S.E.; for effect on gastric hemorrhage (in words): rats. As to the method:
1.3 Inhibitory effect on gastric hemorrhage in rats
The method of Maeda-Hagiwara and Watanabe (Eur. J. Pharmacol. 89, 243-250, 1983) was used. Male Sprague-Dawley rats weighing 250-300 g were employed in groups of 10-14. After 24 hours fasting, the pylorus was ligated under light ether anesthesia. Then, 200 mg/kg of 2-deoxy-D-glucose was administered intravenously in combination with 40 mg/kg of indomethacin suspended in 0.5 % carboxymethylcellulose by the subcutaneous route. After 1 hour the test compounds wer einjected intraperitoneally. Two hours later, the animals were exsanguinated under ether anesthesia and their stomachs were isolated. Gastric juice was collected and filtered. The amount of discharged blood was expressed as that of hemoglobin in mg per rat.

Data set [5] is described as follows: Toxicity, general statements. To be noted: in vivo.
The next data set deals with rats. Nature of the data set: 3-month oral toxicity study in rats. The format is in vivo. The note with it: 3 months. As to the method: Compound 2 was administered orally to rats at 150 and 50 mg/kg/day for 3 months. This study included: observation of toxic signs during the treatment; macroscopic and microscopic examinations of main organs including the brain, heart, liver, kidney, bone marrow, adrenal, and lung; and biochemical tests of the blood and urine.

A short description of data set [6]: in vivo. To be noted: rat, rats.
For data set [7] the following is noted: c.f. U.S. Pat. No. 4,289,776; cited from earlier work.
The test system of data set [8] is peptic ulcer disease. Nature of the data set: Antiulcer effect, general statements. The note with it: in vivo.
Setting [9] is: Table 3 (efficacy comparison), 10 mg/kg po.
Setting [10] is: ip, intraperitoneal administration.
The mark [11] stands for this setting: Table 5 (efficacy comparison), 10 mg/kg po.

As for `CCCn1cnc2c1c(=O)n(CCCC(C)=O)c(=O)n2C` [Compound 3], in data set [1] (setting [9]), the Inhibition turned out to be 67.0% and the Ulcer index was 6.5 ± 1.6 mm. The compound also showed an LD50 in the data set “in vivo [2]” (setting [10]) of 300 to 600 mg/kg.
Consider `CC(=O)CCCCn1c(=O)c2c(ncn2C)n(C)c1=O` [Pentoxifylline, 1,2,3,6-tetrahydro-3,7-dimethyl-1-(5-oxohexyl)-purine-2,6-dione, reference compound], for which, in the data set on peptic ulcer disease [3], the “antiulcer effect reported in the literature (in words)” value is recorded as “antiulcer effects”. Besides, the Inhibition in data set [1] (Table 2, 10 mg/kg po) came out at 25.8%; in data set [1] (Table 2, 25 mg/kg po) it was 52.0%; in [1] (Table 2, 50 mg/kg po), 83.9%; in data set [1] (setting [9]) it was 12.7%; in data set [4] (Table 4, 10 mg/kg po) it was 50.3%; in data set [4] (Table 4, 25 mg/kg po), 63.9%. The Inhibition in [4] (Table 4, 50 mg/kg po) is listed as 85.9%; in [4] (setting [11]) it was 78.8%. The Ulcer index in data set [1] (Table 2, 10 mg/kg po) is listed as 24.4 ± 4.0 mm; in [1] (Table 2, 25 mg/kg po), 15.8 ± 4.1 mm; in data set [1] (Table 2, 50 mg/kg po) it was 5.3 ± 1.2 mm; in data set [1] (setting [9]), 17.2 ± 5.6 mm; in data set [4] (Table 4, 10 mg/kg po), 65.8 ± 12.1 mm; in data set [4] (Table 4, 25 mg/kg po), 47.8 ± 15.3 mm. Also, the Ulcer index in data set [4] (Table 4, 50 mg/kg po) amounted to 18.7 ± 6.2 mm; in [4] (setting [11]), 34.9 ± 10.9 mm. For the same compound, the figures for the Amount of hemoglobin with gastric hemorrhage (25 mg/kg i.p.) and with gastric hemorrhage (50 mg/kg i.p.) were 19.6 ± 2.0 mg/rat and 17.3 ± 2.3 mg/rat, respectively. Also, the “effect on gastric hemorrhage (in words)” value with gastric hemorrhage is “did not have a statistically significant effect”.
For the compound `CCCn1cnc2c1c(=O)n(CCCCC(C)=O)c(=O)n2C` [Compound 2, 1,2,3,6-tetrahydro-3-methyl-1-(5-oxohexyl)-7-propyl-purine-2,6-dione], the “toxicity (in words)” value in [5] is listed as “low toxicity”. Further, the “toxic signs, macroscopic and microscopic organ examinations, biochemical tests of blood and urine” value is given as “no abnormalities at either level of treatment” in the data set with rats (50 mg/kg/day) and “no abnormalities at either level of treatment except that slight salivation occurred at 150 mg/kg/day” in the data set on rats (150 mg/kg/day). In addition, the Inhibition in data set [1] (Table 2, 5 mg/kg po) came to 39.4%; in [1] (Table 2, 10 mg/kg po), 64.3%; in [1] (Table 2, 25 mg/kg po) it was 75.6%; in [1] (setting [9]) it was 56.3%; in data set [4] (Table 4, 10 mg/kg po) it was 61.5%; in [4] (Table 4, 25 mg/kg po), 75.4%. For the same compound, the Inhibition in [4] (Table 4, 50 mg/kg po) was 89.7%; in data set [4] (setting [11]), 86.9%. The Ulcer index in [1] (Table 2, 5 mg/kg po) came out at 22.6 ± 9.8 mm; in [1] (Table 2, 10 mg/kg po) it was 13.3 ± 5.4 mm; in [1] (Table 2, 25 mg/kg po), 9.1 ± 3.1 mm; in [1] (setting [9]), 8.6 ± 2.3 mm; in data set [4] (Table 4, 10 mg/kg po), 51.0 ± 13.2 mm; in data set [4] (Table 4, 25 mg/kg po) it was 32.6 ± 9.1 mm. In addition, the Ulcer index was determined as 13.6 ± 9.3 mm in [4] (Table 4, 50 mg/kg po) and 21.6 ± 4.6 mm in data set [4] (setting [11]). Further, the “effectiveness relative to pentoxifylline in improving stress-induced gastric ulcers” value in [1] (versus pentoxifylline) lay within 2 to 3 times. Moreover, the LD50 in “in vivo [6]” (intravenous injection) turned out to be 180 mg/kg; in the data set “in vivo [6]” (oral dosing), 1150 mg/kg; in the data set “in vivo [2]” (setting [10]), 296 mg/kg; in the data set “in vivo [2]” (intravenous injection) it was 168 mg/kg; in “in vivo [2]” (oral dosing), 900 mg/kg. Besides, the Amount of hemoglobin in the data set on gastric hemorrhage (12.5 mg/kg i.p.) stood at 27.0 ± 3.0 mg/rat; with gastric hemorrhage (25 mg/kg i.p.), 14.4 ± 1.4 mg/rat; with gastric hemorrhage (50 mg/kg i.p.), 12.5 ± 1.6 mg/rat. Moreover, the “effect on gastric hemorrhage (in words)” value in the data set on gastric hemorrhage is given as “inhibitory effects on gastric hemorrhage”. Moreover, in data set [7], the “pharmacological effects shown previously (in words)” value was “dilate cerebral blood vessels, improve cerebral energy metabolism, red blood cell deformability, and cerebral edema, and decrease blood viscosity”. For the same compound, the “antiulcer effect (in words)” value with peptic ulcer disease [8] is on record as “improving effects on gastric ulcer”.
`CCn1cnc2c1c(=O)n(CCCCC(C)=O)c(=O)n2C` [Compound 1]: in data set [1] (setting [9]), the Inhibition came out at 77.2% and the Ulcer index is 4.5 ± 0.9 mm. In [4] (setting [11]), this compound showed an Inhibition of 84.6% and a Ulcer index of 25.3 ± 10.9 mm. Besides, the median lethal dose (LD50) in the data set “in vivo [2]” (setting [10]) fell in the range of 250 to 500 mg/kg.

The values above are taken from patent publication US4845102A, “Therapeutic agent for the treatment of peptic ulcer disease” (Hoechst Japan Limited, priority 1986, dated 1989).
